“Also recorded” adds a separate entry of the source. Where two headings read alike, the source gives them in different places.
Assays:
α4β2 receptors = target: T1, α4β2 receptors (Homo sapiens, UniProt P17787+P43681); format: cell-based; conditions: for agonist activity/potency on α4β2 receptors (in words): oocytes expressing α4β2 receptors
T1 construct: expressed in transfected cells; host or cells: Xenopus laevis oocytes (mRNA injection, alpha4:beta2 1:1)
Text: (§1) ACh control applications alternated with test compound applications.

[1] = tested on: alpha7 receptors relative to alpha4beta2 nAChRs; conditions: Martin et al., 2004; cited from earlier work
[2] = tested on: α6/α3 chimera/β2 receptors; conditions: oocytes, FIG. 2.13
Protocol: Mature female Xenopus laevis were anesthetized by immersion in a 1.5 g/L solution of aminobenzoic acid ethyl ester (MP Biomedicals, LLC, Solon, Ohio) for 30 min. The excised ovary bag was placed into calcium-free Barth's saline (88 mM NaCl, 1 mM KCl, 2.38 mM NaHCO3, 0.82 mM MgSO4, 15 mM HEPES, 0.012 mg/ml tetracycline hydrochloride, pH 7.3+−0.1), opened with forceps and washed three times with Barth's saline. Then 60 ml collagenase solution (76 mg Sigma type XX collagenase dissolved in Ca^2+-free Barth saline) was added and the oocyte containing mass was shaken for 2 hours at 5° C. After washing three times with Ca^2+-free Barth's and then three times with Barth's solution containing calcium, the oocytes were evaluated under a stereo microscope. Healthy stage 5 oocytes were transferred into new dishes and incubated in 17° C. for overnight. Oocytes were injected with either 50 nl of alpha7 mRNA solution (20 ng) or 50 nl of a mixture of alpha4 and beta2 (1:1, 10 ng) mRNA, using a Drummond Nanoject II Auto-Injector. The cells were cultured in Barth's saline at 17° C. for 5-16 days, with daily changes in the saline. […] Membrane currents were recorded with an AxoClamp-2 (Axon Instruments, Union City, Calif.), filtered at 10 kHz and sampled at 5 kHz. […]

α7 receptors = target: T2, α7 receptors (Homo sapiens, UniProt P36544); format: cell-based; conditions: oocytes expressing α7 receptors
T2 construct: expressed in transfected cells; host or cells: Xenopus laevis oocytes (mRNA injection)
T2 sequence (P36544 23-502): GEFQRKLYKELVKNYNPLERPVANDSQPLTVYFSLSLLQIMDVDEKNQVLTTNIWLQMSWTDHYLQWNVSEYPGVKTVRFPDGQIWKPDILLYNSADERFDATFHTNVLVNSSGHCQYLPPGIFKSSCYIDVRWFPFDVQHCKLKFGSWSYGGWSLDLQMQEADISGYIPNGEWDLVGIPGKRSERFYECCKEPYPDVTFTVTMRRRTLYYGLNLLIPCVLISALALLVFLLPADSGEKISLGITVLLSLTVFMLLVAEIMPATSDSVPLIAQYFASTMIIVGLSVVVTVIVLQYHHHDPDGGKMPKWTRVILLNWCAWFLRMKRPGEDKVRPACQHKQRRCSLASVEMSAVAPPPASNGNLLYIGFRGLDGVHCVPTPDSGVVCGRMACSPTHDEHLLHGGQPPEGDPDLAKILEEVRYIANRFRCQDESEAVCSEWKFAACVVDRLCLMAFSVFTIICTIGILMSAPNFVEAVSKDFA
Text: as §1

[3] = tested on: rat brain nAChRs that bind nicotine with high affinity; conditions: reference 7; cited from earlier work
[4] = listed as 3-(((2S,5S)-1,5-Dimethylpyrrolidine-2-yl)methoxy)-pyridine

T1 sequence (P43681 29-627 limits assumed): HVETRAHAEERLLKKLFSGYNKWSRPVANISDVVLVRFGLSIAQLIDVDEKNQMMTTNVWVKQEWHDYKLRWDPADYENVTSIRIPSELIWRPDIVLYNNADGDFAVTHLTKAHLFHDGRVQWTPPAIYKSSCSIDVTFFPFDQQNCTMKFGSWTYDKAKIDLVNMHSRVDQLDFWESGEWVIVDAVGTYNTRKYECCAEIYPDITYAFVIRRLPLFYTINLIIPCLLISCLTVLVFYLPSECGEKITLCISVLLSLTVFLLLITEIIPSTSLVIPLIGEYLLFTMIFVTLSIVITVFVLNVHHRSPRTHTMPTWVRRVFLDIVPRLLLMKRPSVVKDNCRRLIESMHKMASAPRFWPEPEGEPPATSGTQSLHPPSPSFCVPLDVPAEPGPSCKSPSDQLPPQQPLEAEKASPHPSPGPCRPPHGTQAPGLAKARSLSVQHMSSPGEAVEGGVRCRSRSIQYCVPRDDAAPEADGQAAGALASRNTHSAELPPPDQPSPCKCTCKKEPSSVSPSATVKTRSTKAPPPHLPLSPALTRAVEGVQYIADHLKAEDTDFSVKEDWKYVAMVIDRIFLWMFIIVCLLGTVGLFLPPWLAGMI
T1 sequence (P17787 26-502): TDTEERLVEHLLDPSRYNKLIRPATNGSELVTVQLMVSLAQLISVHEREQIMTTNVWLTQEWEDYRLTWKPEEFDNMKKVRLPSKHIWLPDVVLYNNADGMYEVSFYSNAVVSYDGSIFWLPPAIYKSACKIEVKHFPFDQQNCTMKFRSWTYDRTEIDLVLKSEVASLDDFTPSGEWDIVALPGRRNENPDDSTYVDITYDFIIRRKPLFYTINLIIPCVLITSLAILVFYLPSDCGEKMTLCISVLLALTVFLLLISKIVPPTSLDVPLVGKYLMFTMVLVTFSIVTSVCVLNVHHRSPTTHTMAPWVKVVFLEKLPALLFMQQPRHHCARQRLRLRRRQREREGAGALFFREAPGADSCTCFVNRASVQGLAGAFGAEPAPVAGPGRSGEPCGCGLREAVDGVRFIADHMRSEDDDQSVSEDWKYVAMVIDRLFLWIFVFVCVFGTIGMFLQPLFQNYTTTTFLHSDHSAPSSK

SMILES: C[C@H]1C[C@H](c2cccnc2)N1C (relative stereo) [Trans-3-(1,4-Dimethylazetidin-2-yl)pyridine]
- potency of trans- versus cis-diastereomers on α4β2 receptors (in words) (α4β2 receptors; oocytes, FIG. 3.4): significantly more potent than the cis-diastereomers

SMILES: CN1CCC[C@H]1c1cccnc1 [nicotine, (S)-nicotine]
- alpha7 receptors less sensitive to nicotine relative to alpha4beta2 nAChRs [1]: at least 50 ×

SMILES: C[C@@H]1CC[C@@H](COc2cccnc2)N1C [3-(((2S,5R)-1,5-Dimethylpyrrolidin-2-yl)methoxy)pyridine]
- agonist activity/potency on α4β2 receptors (in words) (α4β2 receptors): essentially no agonistic activity

SMILES: C[C@H]1CC[C@@H](c2cccnc2)N1C [5′ Cis-Me-Nic]
- agonist activity/potency on α4β2 receptors (in words) (α4β2 receptors): inactive
- response of α6/α3 chimera/β2 receptors (in words) [2]: essentially identical manner

SMILES: C[C@H]1CC[C@@H](COc2cccnc2)N1C [3-(((2S,5S)-1,5-Dimethylpyrrolidin-2-yl)methoxy)pyridine]
- agonist activity/potency on α4β2 receptors (in words) (α4β2 receptors): essentially no agonistic activity
- agonist activity/potency on α4β2 receptors (in words) (α4β2 receptors; [4]): low activity
- agonist activity/potency on α7 receptors (in words) (α7 receptors; [4]): high potency; also recorded: low activity

SMILES: CCC1(c2cccnc2)CCCN1C (racemic) [2′-ethyl-nicotine, (±)-2′-Ethylnicotine]
- displacement of radiolabeled methylcarbamylcholine binding (in words) [3]: displace the binding

SMILES: CN1CCCC1(C)c1cccnc1 (racemic) [2′ methyl-nicotine, (±)-2′-Methylnicotine]
- agonist activity/potency on α4β2 receptors (in words) (α4β2 receptors): excellent agonist activity
- agonist activity/potency on α7 receptors (in words) (α7 receptors): excellent agonist activity
- increase in potency at α7 nAChR relative to nicotine (α7 receptors; FIG. 2.10): 6.7 fold
- displacement of radiolabeled methylcarbamylcholine binding (in words) [3]: displace the binding

SMILES: C[C@@H]1CC[C@@H](c2cccnc2)N1C [5′ Trans-Me-Nic]
- agonist activity/potency on α4β2 receptors (in words) (α4β2 receptors): inactive
- response of α6/α3 chimera/β2 receptors (in words) [2]: essentially identical manner

SMILES: CN1CCC1c1cccnc1 (stereo not drawn) [trans-3-(1-methylazetidin-2-yl)pyridine]
- agonist activity/potency on α4β2 receptors (in words) (α4β2 receptors): more potent strong agonist
- agonist activity/potency on α7 receptors (in words) (α7 receptors): more potent strong agonist
